Where two headings read alike, the source gives them in different places.

In general, GI50 refers to the concentration giving 50% growth inhibition.

The subject of one assay is MV-411 cells. Briefly: Anti-proliferative activity against leukemia cells (CellTiterGlo viability, 72 hrs). In kind it is cell-based. As to the method:
Procedure: MV-411 or Molm-13 cells were seeded into 384 well plates at 2000 cells/well density in 50 uL according plate map and were allowed to naturally sediment by waiting about 30 min in Clean Bench. Next, plated cells were centrifuged for 1 min at 1000 rpm and the excess cells were transferred into the flasks for further culture. Cells in the assay plates were incubated (at least 4 hrs) at 37° C., 5% CO2 for next process followed by adding the compounds as the plate map indicated. The tests were performed in duplicates with treatment of compounds at 10 pts 3 fold titration in 384 well plates. Taxol was as positive control while DMSO as negative control. To rule out edge effect, the wells on the edge were not seeded and therefore one 384 well plate holds 13 compounds. Cells viability was measured 72 hrs after incubation with compounds and using CellTiterGlo (promega) viability assay according to manufactory's instruction to check the ATP production in each well.
Experiments on anti-proliferative activity against leukemia cells were conducted with some of the compounds of the invention.

In assay [1] the target is MLL1-WDR5 protein-protein interaction (Homo sapiens (Human), UniProt P61964). The assay can be described thus: WDR5 TR-FRET assay of inhibition against MLL1-WDR5 protein-protein interaction. In kind it is binding. As to the method:
WDR5 TR-FRET Assay Procedure: Stock compounds were transferred to the assay plate by Echo Liquid Handler. Reactions were performed in the assay buffer (1×PBS, 300 mM NaCl, 0.5 mM TCEP, 0.1% CHAPS) containing 5 nM WDR5 protein, 10 nM peptide (Ac-ARTEVHLRKS-[Ahx-Ahx] [C]-Alexa Fluor 488-NH2) and 0.25 nM Tb-anti His antibody (Tb-Ab) in 384-well white plate (PerkinElmer) with a final volume of 20 μl. Compounds were incubated with WDR5 protein for 30 min at room temperature. Plates were covered, protected from light and incubated for 60 min at room temperature after adding the peptide and Tb-Ab. EnVision Multimode Plate Reader (PerkinElmer) was used for the TR-FRET assay with excitation wavelength at 340 nm and emission wavelength at 495 and 520 nm. The ratio of the 520/495 wavelengths were used to assess the degree of the FRET signal. IC50 was calculated by fitting the inhibition data using XLfit software to sigmoidal dose-response model.
Biphenyl compound DDO-2084 was reported to be a small molecule inhibitor that can inhibit MLL1-WDR5 protein-protein interaction, reduce MLL1 enzyme catalytic activity, and downregulate the expression of Hox and Meis-1 genes (Eur. J. Med. Chem. 2016, 124, 480-489). DDO-2084 is used as a positive control compound.

[2] abbreviates: MV4-11, MV-411 human acute monocytic leukemia cell, Table 7.
[3] abbreviates: Table 7, read-out: WDR5 TR-FRET Assay (IC50 nM).
The mark [4] stands for this setting: MV4-11, MV-411 human acute monocytic leukemia cell, Table 6.

As for “1-(3-(5-amino-2-chloro-4-fluoro-3-methylbenzamido)-4-(4-methylpiperazin-1-yl)phenyl)-N-(2-ethoxyethyl)-1H-1,2,3-triazole-4-carboxamide [HYBI_002]”, the concentration for 50% growth inhibition (GI50) in the assay on MV-411 cells (MV-411 human acute monocytic leukemia cell, Table 6) worked out at 6.31 µM. The IC50 in assay [1] (WDR5 TR-FRET, 5 nM WDR5 protein, 10 nM peptide, read-out: MLL1-WDR5 PPI inhibitory activity) came out at 44.2 nM.
`C[C@H]1CN(c2cc(F)c(-c3ccc(C(=O)N(C)C)cc3)cc2Nc2ncnc(Cl)c2N)CCN1C` [DDO-2213_001, (S)-5′-((5-amino-6-chloropyrimidin-4-yl)amino)-4′-(3,4-dimethylpiperazin-1-yl)-2′-fluoro-N,N-dimethyl-[1,1′-biphenyl]-4-carboxamide] came in with a GI50 in the assay on MV-411 cells (setting [2]) of 11.6 µM. Moreover, the IC50 in assay [1] (setting [3]) turned out to be 11.1 nM.
The matching figures for `C[C@@H]1CN(c2cc(F)c(-c3ccc(C(=O)N(C)C)cc3)cc2Nc2ncnc(Cl)c2N)C[C@H](C)N1C` [DDO-2213_002, 4-[5-[(5-amino-6-chloro-pyrimidin-4-yl)amino]-2-fluoro-4-[(3R,5S)-3,4,5-trimethylpiperazin-1-yl]phenyl]-N,N-dimethyl-benzamide]: 15.6 µM and 55.5 nM.
Compound `CN1CCCN(c2cc(F)c(-c3ccc(C(=O)N(C)C)cc3)cc2Nc2ncnc(Cl)c2N)CC1` [DDO-2213_003, 5′-((5-amino-6-chloropyrimidin-4-yl)amino)-2′-fluoro-N,N-dimethyl-4′-(4-methyl-1,4-diazepan-1-yl)-[1,1′-biphenyl]-4-carboxamide] yielded a concentration for 50% growth inhibition (GI50) in the assay with MV-411 cells (setting [2]) of 59.9 µM. Moreover, the IC50 in assay [1] (setting [3]) worked out at 395 nM.
`CC(C)NC(=O)c1ccc(-c2cc(Nc3ncnc(Cl)c3N)c(N3C[C@@H](C)N(C)[C@@H](C)C3)cc2F)cc1` [DDO-2213_004, 5′-((5-amino-6-chloropyrimidin-4-yl)amino)-2′-fluoro-N-isopropyl-4′-((3S,5R)-3,4,5-trimethylpiperazin-1-yl)-[1,1′-biphenyl]-4-carboxamide]: the GI50 in the assay with MV-411 cells (setting [2]) is 14.8 µM. Besides, the IC50 in assay [1] (setting [3]) was determined as 68.8 nM.
`C[C@H]1CN(c2cc(F)c(-c3ccc(NC(=O)C4CCCCC4)cc3)cc2Nc2ncnc(Cl)c2N)CCN1C` [DDO-2213_005, (S)—N-(5′-((5-amino-6-chloropyrimidin-4-yl)amino)-4′-(3,4-dimethylpiperazin-1-yl)-2′-fluoro-[1,1′-biphenyl]-4-yl)cyclohexanecarboxamide]: the GI50 in the assay with MV-411 cells (setting [2]) was determined as 3.37 µM. Besides, the IC50 in assay [1] (setting [3]) was 11.1 nM.
With `C[C@@H]1CN(c2cc(F)c(-c3ccc(NC(=O)C4CCCCC4)cc3)cc2Nc2ncnc(Cl)c2N)C[C@H](C)N1C` [DDO-2213_006, N-(5′-((5-amino-6-chloropyrimidin-4-yl)amino)-2′-fluoro-4′-((3S,5R)-3,4,5-trimethylpiperazin-1-yl)-[1,1′-biphenyl]-4-yl)cyclohexanecarboxamide], the GI50 in the assay with MV-411 cells (setting [2]) stood at 6.09 µM. Moreover, the IC50 in assay [1] (setting [3]) is 38.6 nM.
In the assay with MV-411 cells (setting [2]), `CCCC(=O)Nc1ccc(-c2cc(Nc3ncnc(Cl)c3N)c(N3C[C@@H](C)N(C)[C@@H](C)C3)cc2F)cc1` [DDO-2213_007, N-(5′-((5-amino-6-chloropyrimidin-4-yl)amino)-2′-fluoro-4′-((3S,5R)-3,4,5-trimethylpiperazin-1-yl)-[1,1′-biphenyl]-4-yl)butyramide] returned a GI50 of 11.5 µM. Moreover, the IC50 in assay [1] (setting [3]) was found to be 51.3 nM.
The compound `C[C@H]1CN(c2cc(F)c(-c3ccnc(OCC4CC4)c3)cc2Nc2ncnc(Cl)c2N)CCN1C` [DDO-2213_008, (S)-6-chloro-N4-(5-(2-(cyclopropylmethoxy)pyridin-4-yl)-2-(3,4-dimethylpiperazin-1-yl)-4-fluorophenyl)pyrimidine-4,5-diamine] gave a GI50 in the assay on MV-411 cells (setting [2]) of 4.76 µM. The IC50 in assay [1] (setting [3]) worked out at 8.63 nM.
The like results for `C[C@@H]1CN(c2cc(F)c(-c3ccnc(OCC4CC4)c3)cc2Nc2ncnc(Cl)c2N)C[C@H](C)N1C` [DDO-2213_009, 6-chloro-N4-(5-(2-(cyclopropylmethoxy)pyridin-4-yl)-4-fluoro-2-((3S,5R)-3,4,5-trimethylpiperazin-1-yl)phenyl)pyrimidine-4,5-diamine] were, in that order, 1.69 µM and 33.9 nM.
For `C[C@@H]1CN(c2cc(F)c(-n3cc(C(=O)N4CCOCC4)nn3)cc2Nc2ncnc(Cl)c2N)C[C@H](C)N1C` [DDO-2213_010, (1-(5-((5-amino-6-chloropyrimidin-4-yl)amino)-2-fluoro-4-((3S,5R)-3,4,5-trimethylpiperazin-1-yl)phenyl)-1H-1,2,3-triazol-4-yl)(morpholino)methanone], it took 7.93 µM to inhibit growth with MV-411 cells (setting [2]) by half (GI50). For the same compound, the IC50 in assay [1] (setting [3]) came to 250 nM.
Compound `C[C@H]1CN(c2ccc(-c3ccc(C(=O)NCCN4CCOCC4)cc3)c(F)c2Nc2ncnc(Cl)c2N)CCN1C` [DDO-2213_012, (S)-3′-((5-amino-6-chloropyrimidin-4-yl)amino)-4′-(3,4-dimethylpiperazin-1-yl)-2′-fluoro-N-(2-morpholinoethyl)-[1,1′-biphenyl]-4-carboxamide] displayed a GI50 in the assay on MV-411 cells (setting [2]) of 104 µM. In addition, the IC50 in assay [1] (setting [3]) was 56.4 nM.
In the assay with MV-411 cells (setting [2]), `C[C@@H]1CN(c2ccc(-c3ccc(NC(=O)C4CCCCC4)cc3)c(F)c2Nc2ncnc(Cl)c2N)C[C@H](C)N1C` [DDO-2213_014, N-(3′-((5-amino-6-chloropyrimidin-4-yl)amino)-2′-fluoro-4′-((3S,5R)-3,4,5-trimethylpiperazin-1-yl)-[1,1′-biphenyl]-4-yl)cyclohexanecarboxamide] returned a GI50 of 8.26 µM. Besides, the IC50 in assay [1] (setting [3]) was 186 nM.
As to `C[C@@H]1CN(c2ccc(-c3ccc(NC(=O)CC4CCCCC4)cc3)c(F)c2Nc2ncnc(Cl)c2N)C[C@H](C)N1C` [DDO-2213_015, N-(3′-((5-amino-6-chloropyrimidin-4-yl)amino)-2′-fluoro-4′-((3S,5R)-3,4,5-trimethylpiperazin-1-yl)-[1,1′-biphenyl]-4-yl)-2-cyclohexylacetamide], the GI50 in the assay on MV-411 cells (setting [2]) was determined as 4.14 µM. Further, the IC50 in assay [1] (setting [3]) was determined as 85.5 nM.
As to `Cc1c(F)c(N)cc(C(=O)Nc2cc(-n3cc(C(=O)NCCCN4CCOCC4)nn3)ccc2N2CCN(C)C(C)C2)c1Cl` (stereo not shown) [DDO-2306], in the assay with MV-411 cells (setting [4]), the 50% growth inhibitory concentration (GI50) is 7.11 µM.
With `Cc1c(F)c(N)cc(C(=O)Nc2cc(-n3cc(C(=O)NCCCN4CCOCC4)nn3)ccc2N2CCN(C)[C@H](C)C2)c1Cl` [DDO-2308], in the assay with MV-411 cells (setting [4]), halving of growth (GI50) required 9.29 µM.
The same measure, in the same setting: the same measure for `Cc1c(F)c(N)cc(C(=O)Nc2cc(-n3cc(C(=O)NCCCN4CCOCC4)nn3)c(F)cc2N2CCN(C)[C@@H](C)C2)c1Cl` [DDO-2312]: 24.5 µM; for `Cc1c(F)c(N)cc(C(=O)Nc2cc(-n3cc(C(=O)NCCCN4CCOCC4)nn3)c(F)cc2N2CCN(C)[C@H](C)C2)c1Cl` [DDO-2313]: 40.9 µM.
On the same count and under the same terms, with `COc1cc(N2CCN(C)CC2)c(NC(=O)c2cc(N)c(F)c(C)c2Cl)cc1-n1cc(C(=O)NCCCN2CCOCC2)nn1` [DDO-2315] the figure was 24.5 µM; with `COC(=O)c1cn(-c2cc(NC(=O)c3cc(N)c(F)c(C)c3Cl)c(N3CCN(C)CC3)cc2F)nn1` [DDO-2316], 25.4 µM.
Compound `Cc1c(F)c(N)cc(C(=O)Nc2cc(-n3cc(C(=O)OCC4(C)CCCCC4)nn3)ccc2N2CCN(C)CC2)c1Cl` [HYBI_014] displayed a 50% growth inhibitory concentration (GI50) with MV-411 cells (setting [4]) of 2.62 µM.
Regarding `Cc1cc(C(=O)Nc2cc(-n3cc(C(=O)NCCCN4CCOCC4)nn3)ccc2N2CCN(C)CC2)ccc1F` [HYBI_041], halving of growth with MV-411 cells (setting [4]) (GI50) required 13.2 µM.
Consider `CN1CCN(c2ccc(-n3cc(C(=O)NCCCN4CCOCC4)nn3)cc2NC(=O)c2ccc(O)cc2C(F)(F)F)CC1` [HYBI_043], for which the concentration for 50% growth inhibition (GI50) in the assay with MV-411 cells (setting [4]) was determined as 76 µM.

Source of the values: US20230286925A1, “PHENYL TRIAZOLE MLL1-WDR5 PROTEIN-PROTEIN INTERACTION INHIBITOR” (HUYABIO International, LLC, priority 2022, published 2023).
